Reference: patent US20250134867A1, “METHOD FOR MODULATING LIPID METABOLISM, AMELIORATING NON-ALCOHOLIC FATTY LIVER DISEASE AND METABOLIC SYNDROME BY USING 6-METHOXYBENZOXAZOLINONE” (Taichung District Agricultural Research and Extension …, priority 2023, published 2025)

How the values were obtained:
Type in all cases: cell-based, human
[1] = system: fatty acid synthase (FAS); experiment: Western blot analysis, FAS expression in OA-induced HuS-E/2 cells; details: CX at 100-400 μM, 0.1 mM OA-induced HuS-E/2 cells
Source text: The procedure regarding Western blot analysis is as follows. For western blot analysis, an equal amount of protein from each sample was resolved by sodium dodecyl sulfate polyacrylamide gel electrophoresis (SDS-PAGE) and then transferred to polyvinylidene fluoride (PVDF) membranes. Primary antibodies against AMPK (Cat. GTX103487), adipose triglyceride lipase (ATGL) (Cat. GTX109941), carnitine palmitoyl-transferase 1 (CPT1) (Cat. GTX114337), and β-actin (Cat. GTX109639) were from GeneTex (Taiwan), and those against pAMPK (Cat. AP0432), phospho acetyl-CoA carboxylase (pACC) (Cat. AP0298), ACC (Cat. A15606), and fatty acid synthase (FAS) (Cat. A21182) was from ABclonal (China). Horseradish peroxidase (HRP)-conjugated secondary antibodies were from Jackson ImmunoResearch Laboratories, Inc., USA. WesternBright® ECL kits (Advansta Inc., USA) were used for protein visualization. Levels of protein expression were quantified by densitometric analyses.

[2] = system: HuS-E/2 cells; experiment: MTT cell viability / cytotoxicity assay; details: 24 h
Description: To determine the cytotoxicity of CX, HuS-E/2 cells were incubated with CX at the concentrations indicated for 24 hours. The CX stock solution was 200 mM in dimethyl sulfoxide (DMSO; Cat. 15578544, J. T. Baker, USA), and stored at −20° C.
The procedure regarding cell culture of immortalized primary human hepatocytes HuS-E/2 cells is as follows. HuS-E/2 cell line, kindly provided by Dr. Shimotohno (Kyoto University, Japan), were maintained in primary hepatocyte medium (PH medium), containing 20 mM HEPES, 10% fetal bovine serum, 15 μg/mL L-proline, 0.25 μg/mL insulin, 50 nM dexamethasone, 44 mM NaHCO3, 10 mM nicotinamide, 5 ng/ml EGF, 0.1 mM Asc-2P, 100 IU/mL penicillin, 100 μg/mL streptomycin, 10 μg/mL gentamicin, and 1 μg/mL plasmocin in high-glucose Dulbeco's modified Eagle medium (DMEM). Cells were incubated at 37° C. in an incubator supplied with 5% CO2.
3-(4,5-dimethylthiazol-2-yl)-2,5-diphenyltetrazolium bromide (MTT) (Cat. M5655) (Sigma-Aldrich, USA) stock solution was 5 mg/mL in 1×phosphate-buffered saline (PBS), and stored at −20° C.
The procedure regarding cell viability is as follows. HuS-E/2 cells were seeded at 4.5×10^4 cells/well in a 96-well plate and were incubated with 0-1600 μM CX for 24 h. MTT was added to each well to a final concentration of […] and was incubated at 37° C. for an hour before removal. MTT-formazan crystals formed by metabolically viable cells were dissolved in 200 μL of DMSO for absorbance detection at 550 nm using a SPARK® Multimode microplate reader from TECAN, Switzerland. The 50% cytotoxic concentration (CC50) was calculated using the normalized response (variable slope) model given in GraphPad Prism 7.03 (USA).

[3] = system: OA-induced HuS-E/2 cells; experiment: Oil Red O staining of lipid accumulation in oleic acid (OA)-induced cells; details: 0.1 mM OA, 18 h
Description: To evaluate the effect of CX on lipid accumulation, HuS-E/2 cells were incubated with or without 0.1 mM OA (Cat. O1383) in the presence or absence of CX for 18 hours. The OA stock solution was 3.15 M in DMSO, and stored at −20° C.
The procedure regarding oil red O staining is as follows. Oil Red O stain (Cat. O0625) were from Sigma-Aldrich, USA. The Oil Red O stain stock solution was 3 mg/mL in isopropanol, and stored at room temperature. For microscopic observation, cells were fixed in 4% paraformaldehyde in phosphate-buffered saline (PBS) for 30 min at room temperature, stained with Oil Red O stain working solution (60% Oil Red O stock solution and 40% distilled water) for 1 h at room temperature, and then rinsed with water. Micrographs were captured under a microscope. For quantitative analysis of cellular lipids, cells were washed three times with ice-cold PBS, fixed with 10% formalin for 1 h, washed, stained with Oil Red O solution for 1 h at room temperature, and washed with water to remove excess dye. Cell-bound Oil Red O stain was dissolved in isopropanol at room temperature for 5 min with shaking. The absorbance at 510 nm was measured in a spectrophotometer. The relative lipid content is calculated by setting the readouts of those receiving vehicles to 0% and those receiving free fatty acids alone to 100%.

COc1ccc2[nH]c(=O)oc2c1 [CX, 6-methoxybenzoxazolinone]
FAS expression [1]: downregulated FAS expression
effect on the viability of HuS-E/2 cells ([2]; CX at 25-400 μM, MTT): no significant effect
cytotoxicity in HuS-E/2 cells ([2]; CX at up to 400 μM): did not inflict cytotoxicity
CC50 ([2]; HuS-E/2 cells, MTT, n=3, mean±SEM, read-out: CC50 (50% cytotoxic concentration)): 1430 ± 170 µM
lipid accumulation (micrographs, Oil Red O) ([3]; FIG. 2A): reduced lipid accumulation in a dose-dependent manner
lipid content (Oil Red O, absorbance 510 nm) ([3]; FIG. 2B): diminished the lipid content
